1 molecule from ChEMBL document CHEMBL6103622 (J Med Chem, 2025) can be followed below.

Data set [1] has as its system MC-38. As to the kind of experiment: Antitumor activity against mouse MC38 cells allografted in C57BL/6 mouse model assessed as reduction in tumor weight at 10 mg/kg, ip administered once daily for 14 days relative to control. It is filed as functional. The note with it: time 14 day. Set-up: scale not given: the % may be the effect or the level left.
The nature of data set [2]: Terminal half-life in Sprague-Dawley rat at 10 mg/kg, po. To be noted: in vivo, read-out: beta t1/2 (converted). Format: ADME, organism-based.
In data set [3] the test system is MC-38. As to the kind of experiment: Antitumor activity against mouse MC38 cells allografted in C57BL/6 mouse model assessed as downregulation of Mrc1 mRNA expression in tumor at 10 to 20 mg/kg, ip administered once daily for 14 days by qPCR analysis. Format: functional, organism-based. The note with it: dose 10-20 mg/kg, time 14.0 day. A general note: Quantitative PCR measures a nucleic acid by following its amplification.

Data set [4] concerns MC-38. As to the kind of experiment: Inhibition of cell proliferation in mouse MC38 cells at 10 to 100 nM incubated for 20 hrs by CCK8 assay. It is filed as functional, cell-based. To be noted: dose 10-100 nM. A general note: Tetrazolium assays rely on reduction of a dye to a coloured formazan, in cell work by metabolically active cells.
In data set [5] the test system is Colorectal cancer organoid. As to the kind of experiment: Antitumor activity against patient derived CRC organoids cocultured with IL-4/13 stimulated M2 macrophages assessed as lytic death state at 10 to 100 nM incubated for 72 hrs. It is filed as functional, tissue-based. To be noted: Homo sapiens, Colorectum, dose 10-100 nM.
Data set [6] has as its system Colorectal cancer organoid. As to the kind of experiment: Antitumor activity against patient derived CRC organoids assessed as reduction in number of organoids at 10 to 100 nM incubated for 72 hrs. Format: functional, tissue-based. To be noted: Homo sapiens, Colorectum, dose 10-100 nM.
The target in data set [7] is Macrophage colony-stimulating factor 1 receptor (Homo sapiens, UniProt P07333). As to the kind of experiment: Inhibition of CSF-1R (unknown origin) at 1 uM.
Macrophage colony-stimulating factor 1 receptor, sequence (P07333 whole entry): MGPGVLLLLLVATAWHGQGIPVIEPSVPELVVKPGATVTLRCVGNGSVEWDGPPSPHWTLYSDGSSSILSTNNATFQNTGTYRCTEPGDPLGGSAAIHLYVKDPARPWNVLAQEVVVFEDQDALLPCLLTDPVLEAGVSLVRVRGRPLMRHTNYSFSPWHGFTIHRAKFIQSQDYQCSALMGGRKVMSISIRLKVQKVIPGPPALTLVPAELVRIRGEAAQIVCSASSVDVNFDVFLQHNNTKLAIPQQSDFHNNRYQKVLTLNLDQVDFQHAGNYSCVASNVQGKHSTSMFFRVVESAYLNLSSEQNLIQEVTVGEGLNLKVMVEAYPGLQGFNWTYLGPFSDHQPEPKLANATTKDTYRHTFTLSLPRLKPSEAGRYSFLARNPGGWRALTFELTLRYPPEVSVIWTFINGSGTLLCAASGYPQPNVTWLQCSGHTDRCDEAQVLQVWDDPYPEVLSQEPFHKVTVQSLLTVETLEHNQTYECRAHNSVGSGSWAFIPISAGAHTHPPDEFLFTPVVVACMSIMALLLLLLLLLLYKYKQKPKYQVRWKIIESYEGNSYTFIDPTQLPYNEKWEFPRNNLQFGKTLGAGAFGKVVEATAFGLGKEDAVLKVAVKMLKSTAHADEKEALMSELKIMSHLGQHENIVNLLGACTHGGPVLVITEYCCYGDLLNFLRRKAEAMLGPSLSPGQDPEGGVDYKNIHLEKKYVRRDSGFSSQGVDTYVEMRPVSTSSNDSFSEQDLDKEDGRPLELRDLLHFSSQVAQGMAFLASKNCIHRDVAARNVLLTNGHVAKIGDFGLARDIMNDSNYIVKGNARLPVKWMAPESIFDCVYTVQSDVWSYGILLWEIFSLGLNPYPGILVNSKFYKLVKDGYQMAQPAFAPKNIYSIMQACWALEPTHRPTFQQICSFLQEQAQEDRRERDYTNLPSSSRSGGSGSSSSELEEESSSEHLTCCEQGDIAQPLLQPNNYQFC
The test system of data set [8] is BMDM. As to the kind of experiment: Induction of repolarization of M2 like macrophage into M1 phenotype in female C57BL/6 mouse BMDM cells assessed as decrease in Rental mRNA expression at 10 to 100 nM stimulated with mouse IL4/IL-13 for 24 hrs followed by compound addition and measured after 24 hrs by qPCR analysis. It is filed as functional, cell-based. The note with it: dose 10-100 nM.

Data set [9] concerns the target T1, Macrophage colony-stimulating factor 1 receptor (Mus musculus) (UniProt P09581).
T1 sequence (whole entry): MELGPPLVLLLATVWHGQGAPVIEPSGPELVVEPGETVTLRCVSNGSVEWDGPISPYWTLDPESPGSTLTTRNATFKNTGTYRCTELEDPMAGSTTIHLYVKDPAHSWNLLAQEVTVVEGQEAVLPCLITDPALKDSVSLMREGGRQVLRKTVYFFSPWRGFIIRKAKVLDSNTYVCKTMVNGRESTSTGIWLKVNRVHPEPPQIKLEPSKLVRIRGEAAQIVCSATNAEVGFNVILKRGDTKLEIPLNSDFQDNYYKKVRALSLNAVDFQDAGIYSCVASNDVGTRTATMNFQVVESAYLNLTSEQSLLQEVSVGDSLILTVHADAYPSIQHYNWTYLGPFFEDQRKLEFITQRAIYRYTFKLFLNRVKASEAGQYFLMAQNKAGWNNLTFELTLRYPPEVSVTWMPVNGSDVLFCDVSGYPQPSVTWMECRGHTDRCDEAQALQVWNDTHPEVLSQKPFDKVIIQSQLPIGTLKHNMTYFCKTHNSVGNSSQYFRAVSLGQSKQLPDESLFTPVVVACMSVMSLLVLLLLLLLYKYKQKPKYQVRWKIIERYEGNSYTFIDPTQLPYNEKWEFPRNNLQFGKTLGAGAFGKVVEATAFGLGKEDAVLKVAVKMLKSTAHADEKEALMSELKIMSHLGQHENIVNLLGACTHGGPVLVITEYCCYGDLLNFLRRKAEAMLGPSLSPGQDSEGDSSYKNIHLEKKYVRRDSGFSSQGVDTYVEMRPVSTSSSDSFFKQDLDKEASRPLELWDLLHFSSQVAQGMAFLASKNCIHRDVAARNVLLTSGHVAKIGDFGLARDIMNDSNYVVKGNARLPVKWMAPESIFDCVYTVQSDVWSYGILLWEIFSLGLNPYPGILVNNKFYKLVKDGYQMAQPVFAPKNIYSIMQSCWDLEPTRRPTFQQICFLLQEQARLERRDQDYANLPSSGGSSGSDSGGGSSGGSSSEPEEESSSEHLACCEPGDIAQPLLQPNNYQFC
As to the kind of experiment: Inhibition of CSF-1R signaling pathway activation in female C57BL/6 mouse BMDM cells assessed as reduction in AKT phosphorylation at Ser473 residue at 100 nM preincubated with compounds for 4 hrs followed by M-CSF stimulation and measured after 30 mins by Western blot analysis. It is filed as cell-based. The note with it: time 4.5 hrs. A general note: Immunoblotting shows a protein as a band on a membrane.

The subject of data set [10] is BMDM. As to the kind of experiment: Induction of repolarization of M2 like macrophage into M1 phenotype in female C57BL/6 mouse BMDM cells assessed as decrease in number of M2 macrophages by measuring reduction in CD206 expression at 10 to 100 nM stimulated with mouse IL4/IL-13 for 24 hrs followed by compound addition and measured after 24 hrs by immunofluorescence analysis. The note with it: dose 10-100 nM. It is filed as functional, cell-based.

The subject of data set [11] is MC-38. As to the kind of experiment: Antitumor activity against mouse MC38 cells allografted in C57BL/6 mouse model assessed as reduction in tumor volume at 10 to 20 mg/kg, ip administered once daily for 14 days. Format: functional, organism-based. The note with it: dose 10-20 mg/kg, time 14.0 day.
Data set [12] deals with MC-38. As to the kind of experiment: Inhibition of cell proliferation in mouse MC38 cells cocultured with condition medium of M2 macrophages at 10 to 100 nM incubated for 20 hrs by CCK8 assay. Format: functional, cell-based. The note with it: dose 10-100 nM.
For data set [13], the target named is T1, Macrophage colony-stimulating factor 1 receptor (Mus musculus). As to the kind of experiment: Inhibition of CSF-1R signaling pathway activation in female C57BL/6 mouse BMDM cells assessed as reduction in ERK phosphorylation preincubated with compounds for 4 hrs followed by M-CSF stimulation and measured after 30 mins by Western blot analysis. It is filed as cell-based. The note with it: dose 10-100 nM, time 4.5 hrs.

Data set [14] deals with MC-38. As to the kind of experiment: Antitumor activity against mouse MC38 cells allografted in C57BL/6 mouse model assessed as upregulation of Il1 mRNA expression in tumor at 10 to 20 mg/kg, ip administered once daily for 14 days by qPCR analysis. It is filed as functional, organism-based. The note with it: dose 10-20 mg/kg, time 14.0 day.
The nature of data set [15]: Terminal half-life in Sprague-Dawley rat at 1 mg/kg, iv. Format: ADME, organism-based. To be noted: in vivo, read-out: beta t1/2 (converted).
The target in data set [16] is T1, Macrophage colony-stimulating factor 1 receptor (Mus musculus). As to the kind of experiment: Inhibition of CSF-1R signaling pathway activation in female C57BL/6 mouse BMDM cells assessed as reduction in STAT3 phosphorylation preincubated with compounds for 4 hrs followed by M-CSF stimulation and measured after 30 mins by Western blot analysis. It is filed as cell-based. To be noted: dose 10-100 nM, time 4.5 hrs.

For data set [17], the system named is MC-38. As to the kind of experiment: Antitumor activity against mouse MC38 cells allografted in C57BL/6 mouse model assessed as reduction in tumor weight at 10 to 20 mg/kg, ip administered once daily for 14 days. Format: functional, organism-based. The note with it: dose 10-20 mg/kg, time 14.0 day.
Data set [18] deals with MC-38. As to the kind of experiment: Antitumor activity against mouse MC38 cells allografted in C57BL/6 mouse model assessed as reduction in tumor volume at 10 mg/kg, ip administered once daily for 14 days relative to control. Set-up: scale not given: the % may be the effect or the level left. It is filed as functional. To be noted: time 14 day.
The subject of data set [19] is MC-38. As to the kind of experiment: Induction of apoptosis in mouse MC38 cells assessed as early apoptotic cells at 10 nM by Annexin V/PI staining based flow cytometric analysis (reference value: 1.91 %). Format: functional.
The test system of data set [20] is BMDM. As to the kind of experiment: Induction of repolarization of M2 like macrophage into M1 phenotype in female C57BL/6 mouse BMDM cells assessed as increase in Il1 mRNA expression at 10 to 100 nM stimulated with mouse IL4/IL-13 for 24 hrs followed by compound addition and measured after 24 hrs by qPCR analysis. It is filed as functional, cell-based. The note with it: dose 10-100 nM.

A short description of data set [21]: Apparent volume of distribution in Sprague-Dawley rat at 1 mg/kg, iv. It is filed as ADME, organism-based. The note with it: in vivo, read-out: Vz.
Data set [22] deals with Colorectal cancer organoid. As to the kind of experiment: Antitumor activity against patient derived CRC organoids assessed as change in morphology of organoids at 10 to 100 nM incubated for 72 hrs. Format: functional, tissue-based. The note with it: Homo sapiens, Colorectum, dose 10-100 nM.

Active and inactive are the calls of the source. The calls are words filed in the database; no cut-off is given here.

Take `Cc1nc(NC(=O)N[C@@H]2CCCC[C@H]2O)ccc1Oc1c[nH]c2ncc(Cl)cc12`: the Activity in the data set on MC-38 [1] is listed as 39%; with MC-38 [11], “Active; Better Activity Observed Than Plx3397-Treated Group”; in the data set with MC-38 [17] it was “Active; Lower Tumor Weight Observed Than That Of Plx3397 Treated Group”; in the data set on MC-38 [18] it was 38%; in the data set on MC-38 [19], 1.96%. Further, the results for the half-life in data set [2] and in data set [15] were 1.86 h and 1.2 h, respectively. In addition, the result (with MC-38 [3]; in data set [5]; in the data set on BMDM [8]; with BMDM [10]; in the data set with MC-38 [14]; in the data set with BMDM [20]) was Active. Besides, the inhibition result in the data set on MC-38 [4] is “Minimal_effect”; in data set [13], “Dose-dependent-effect”; in data set [16] it was “Dose-dependent-effect”. For the same molecule, the outcome in data set [6] and in data set [22] was inactive. Further, the inhibition result (in data set [7]; in data set [9]; in the data set with MC-38 [12]) was “Active” throughout. In addition, the Vd in data set [21] was found to be 3.28 L/kg.
